According to patent publication US20130052172A1, “METHODS FOR DIAGNOSING AND TREATING CARDIAC DEFECTS” (priority 2011, published 2013):

What was measured:
[1] = test system: rats; experiment: Myocardial ischemia/reperfusion by the protocol of example 3 (model not given); assay type: in vivo, rat; conditions: antibiotics in drinking water
From the text: In the following example, methods for assaying myocardial infarction in vitro and in vivo in rats as determined by ischemia/reperfusion studies are described.
(§1) An anesthetized rat model was used for in vivo ischemia/reperfusion studies using the general surgical protocol and determination of infarct size (IS) described in “K(ATP) opener-induced delayed cardioprotection: involvement of sarcolemmal and mitochondrial K(ATP) channels, free radicals and MEK½” (Gross, E. et al., J. Mol. Cell. Cardiol. 35, 985-992, 2003), the entirety of which is incorporated herein by reference. Briefly, following anesthesia, a tracheotomy for artificial ventilation was performed, with the left common carotid artery cannulated for blood pressure and heart rate measurements. A thoracotomy was performed at the fifth intercostal space, the pericardium was excised, and a silk ligature was placed distal to the left atrial appendage that spanned to the sternal portion of the left ventricle, which included the left anterior descending coronary artery. Occlusion of the area described [area at risk (AAR)] was created by placing ends of the ligature through a polypropylene tube and fixing the snare to the epicardial surface with a hemostat. After 30 min, the hemostat was released to reperfuse the AAR. Following 2 h of reperfusion, the ligature was again occluded, and the AAR was determined by patent-blue negative staining. The heart was then excised, cross-sectioned into 4 to 5 slices, and separated into normal zone and AAR. Pieces were incubated in 1% 2,3,5-triphenyltetrazolium chloride to determine IS. The heart was then incubated overnight in 10% formaldehyde, and infarcted tissue was dissected from the AAR. IS was expressed as a percentage of the AAR (IS/AAR). Leptin (0.12 μg/kg) was administered intravenously as a bolus at 24 and 12 h before ischemia. Amino acids were administered intravenously as a bolus at 24 and 12 hours before ischemia or dissolved in the drinking water and given 48 hours before ischemia.
For in vitro ischemia/reperfusion studies, hearts were perfused retrogradely, as described previously in Baker, J. et al. (Am. J. Physiol. Heart Circ. Physiol., 2000), the entirety of which is incorporated herein by reference. Briefly, hearts were perfused with modified Krebs-Henseleit buffer (120 mM NaCl, 25 mM NaHCO3, 4.7 mM KCl, 1.2 mM KH2PO4, 1.20 mM MgSO4, 11 mM glucose, and 1.8 mM CaCl2) bubbled with 95% O2-5% CO2 for a 40-minute stabilization period and subjected to 25 minutes of global no-flow ischemia, followed by 180 minutes of reperfusion. Before use, all perfusion fluids were filtered through cellulose acetate membranes with a pore size of 5.0 μm to remove particulate matter. Hearts were kept in temperature-controlled chambers to maintain myocardial temperature at 37° C. A balloon connected to a pressure transducer was inserted into the left ventricle to monitor cardiac function. For some experiments, hearts were stabilized for 25 minutes and then perfused with vancomycin or a mixture of antibiotics for 15 minutes before ischemia/reperfusion. During the initial 40 minute reperfusion period, recovery of mechanical function was measured as left ventricular developed pressure (LVDP) under steady-state conditions and expressed as a percentage of preischemic LVDP. At the end of the 3 hour reperfusion period, hearts were processed and stained with 2,3,5-triphenyltetrazolium chloride dye for IS determination.

[2] = test system: Dahl S rats; experiment: In vivo regional myocardial ischemia/reperfusion, infarct size (IS/AAR); design: species or system rat
From the text: as §1

[3] = Blood levels of orally administered antibiotics; assay type: in vivo, rat; conditions: antibiotic given in drinking water; detection limit of assay 1 μM
From the text: Dahl S rats are an established model of increased susceptibility to injury from myocardial ischemia/reperfusion (Baker, J. et al. “Resistance to myocardial ischemia in five rat strains: is there a genetic component of cardioprotection?” Am. J. Physiol. Heart Circ. Physiol. 278, H1395-H1400, 2000, Shi, Y. et al. “Increased resistance to myocardial ischemia in the Brown Norway vs. Dahl S rat: role of nitric oxide synthase and Hsp90.” J. Mol. Cell. Cardiol. 38(4):625-635, 2005). […] A minimum treatment time of 48 h with vancomycin was needed to decrease IS. A return to control values for myocardial IS at 72 h following discontinuation of vancomycin was observed (FIG. 5). To determine whether this decrease in IS was a direct effect of antibiotic present in the coronary vasculature, blood levels of vancomycin were measured. The concentration of vancomycin in blood was below detection limits of the assay used (1 μM). […]
Infarct size was measured in rats treated with the antibiotic mixture using the method described in example 3. […] To determine whether the decrease in infarct size was a direct effect of antibiotics present in the coronary vasculature, blood levels of streptomycin, neomycin, bacitracin and polymyxin B were measured. […]

CN[C@H](CC(C)C)C(=O)N[C@H]1C(=O)N[C@@H](CC(N)=O)C(=O)N[C@H]2C(=O)N[C@H]3C(=O)N[C@H](C(=O)N[C@H](C(=O)O)c4cc(O)cc(O)c4-c4cc3ccc4O)[C@H](O)c3ccc(c(Cl)c3)Oc3cc2cc(c3O[C@@H]2O[C@H](CO)[C@@H](O)[C@H](O)[C@H]2O[C@H]2C[C@](C)(N)[C@H](O)[C@H](C)O2)Oc2ccc(cc2Cl)[C@H]1O [vancomycin, Vancomycin]
response of susceptibility to ischemia/reperfusion injury ([1]; Dahl S rats): sensitive
response of susceptibility to ischemia/reperfusion injury ([1]; Sprague Dawley rats): intermediate response
response of susceptibility to ischemia/reperfusion injury ([1]; WAG/RijCmcr rats): resistant
reduction in myocardial IS ([2]; Dahl S rats, antibiotic in drinking water 7 d, in vivo regional ischemia/reperfusion): ~27%
effect on infarct size in vivo ([2]; antibiotic added to the drinking water): reduced infarct size (IS) in vivo
decrease in infarct size ([2]; vancomycin 15 mg/kg/day for 72 hours, thrombopoietin i.v. 15 minutes prior to ischemia): 28%
concentration in blood [3]: < 1000 nM
